The text below walks through data of publication PMC8541353, “A Novel Phenylpyrrolidine Derivative: Synthesis and Effect on Cognitive Functions in Rats with Experimental Ishemic Stroke” (Molecules, 2021).

Data set [1] can be described thus: Reported BBB permeability. The note with it: compound 1, no reference given; own data. The text has this: Table 5 Predicted permeability of ampakines in silico and in the blood–brain barrier (BBB). | column: Literature Report of BBB Permeability
For data set [2], the system named is newborn rat cortical neurons. The data set is described as follows: Glutamate-induced excitotoxicity in newborn rat cortical neuron culture, MTT cell viability. The class given is cell-based, Wistar rats. An excerpt: To confirm the predicted biological activity, we adopted a glutamate-induced excitotoxicity in the rat cortical neurons model. This work was based on previous findings that glutamate is a well-known excitatory CNS neurotransmitter, which contributes to normal neural transmission, development, differentiation, and plasticity. However, excessive extracellular glutamate levels cause uncontrolled continuous neuron depolarization, which can lead to neuronal death. Excitotoxicity is associated with several neurodegenerative conditions, including Huntington’s disease, Alzheimer’s disease, amyotrophic lateral sclerosis, Parkinson’s disease, and stroke/traumatic brain injury. To see whether compound 1 has neuroprotective effects, we studied the influence of compound 1 in glutamate-treated cortical neurons isolated from newborn Wistar rats (0–1 day).
The primary culture of newborn rat cortical neurons was obtained as previously described. Briefly, cortical neurons were collected from newborn Wistar rats and inoculated onto culture plates (4 × 10^5 cell cm^–2). […]
The cell viability was measured according to the cell ability of tetrazolium dye reduction. […] The formazan absorption at 492 nm was measured using a Zenyth 1100 (Anthos Labtec Instruments, GmbH, Salzburg, Austria) microplate reader.

The nature of data set [3]: Concentration of compound 1 in plasma, striatum and cortex by HPLC-MS (intact and MCAO rats). The format is in vivo. The note with it: for concentration at 60 min: rat. The method, then: The calculated data are consistent with the experimental data in intact animals. The concentration of compound 1 was determined in the striatum and frontal cortex by HPLC MS. Sixty minutes after the intravenous administration of compound 1, we anesthetized the rats with isoflurane. Afterward, we drained the blood from the heart, opened the chest, dissected the heart muscle, incised the left atrial appendage, and inserted an 18G needle into the right atrium. The pulmonary circulation was washed with 350 mL of 0.9% NaCl containing 1.0 mL of heparin. After the washing procedure, the rat was decapitated and the brain was removed and dissected. We determined the concentrations of compound 1 using an HPLC MS system. The concentration of compound 1 in plasma and the striatum differed by 650 times, and the concentration in plasma and the cortex differed by 630 times (Table 6).
Brain. A brain sample weighing 50 mg (± 2 mg) was placed in 2 mL tubes and 10 μL of an aqueous solution of an internal standard with a concentration of 1 μg mL^−1 was added, then 140 μL of a 1% aqueous solution of formic acid was added and homogenized. Brain samples were ground in a Precellys Evolution homogenizer using 2 mL tubes with ceramic balls at room temperature at a speed of 4500 vibrations min^−1 for 2 cycles of 90 s. After that, 400 μL of chloroform was added. The sample was shaken and centrifuged at 10,621 g for 2 min. The aqueous layer of the liquid was taken and 400 μL of chloroform was added. The sample was shaken and centrifuged at 10,621 g for 2 min. The supernatant was taken for analysis.
Plasma. A total of 10 μL of an aqueous solution of an internal standard with a concentration of 1 mg mL^−1 was added to 50 μL of plasma. A total of10 μL of formic acid and 150 μL of a 0.2% solution of formic acid in methanol was added to the solution. A total of 780 μL of deionized water was added to the resulting solution. The solution was centrifuged at 10,621 g for 2 min. The supernatant was collected and analyzed.
Analyses were performed by a Shimadzu 20 (Shimadzu, Kyoto, Japan) system consisting of HPLC coupled to triple quadrupole mass spectrometer Shimadzu 8040 (Shimadzu, Japan). The chromatographic separation was performed on Discovery C18 column 3 × 150 mm, 5 μm in a gradient mode with mobile phase components A (0.01M ammonium acetate in water) and B (acetonitrile). The gradient cycle was performed in the following way: 0–6 min 5–40% B, 6.01–10 min 40–95%, 10.01–15 min, isocratic elution with 100% B, and then returned to the initial condition. The column temperature was 60 °C. The sample injection volume was 20 μL. The autosampler temperature was 8 °C.
The electrospray ionization (ESI) source was set in positive ionization mode. Multiple reaction monitoring was used to perform mass spectrometric quantification. MS conditions: interface voltage 3,500 V ([…]), nebulizer gas (nitrogen) flow 2.5 l min^−1, drying gas (nitrogen) flow 15 L min^−1, CID gas pressure 230 kPa, DL temperature 200 °C, and heat block temperature 500 °C. High-purity argon was used as collision gas. The precursor and product ions (m/z) of target analytes were 327.10 and 174.10 for compound 1 and 236.10 and 154.15 for internal standard; collision energy was −20 V for both compounds.

The conditions of data set [4]: cited from earlier work.
The test system of data set [5] is patients with cerebral ischemia-induced short-term memory/cognitive deterioration. The conditions noted are these: after piracetam; cited from earlier work.

Values joined by “and” are separate entries in the source; they are usually repeats but may differ in a detail not shown here. Identical values can stand only once. Like-named read-outs stand apart in the source and are kept apart here.

As to `O=C(CN1CC(c2ccccc2)CC1=O)NCCS(=O)(=O)[O-].[K+]` (stereo not drawn) [Compound 1, potassium 2-[2-(2-oxo-4-phenylpyrrolidin-1-yl)acetamido]ethane-1-sulfonate], in data set [1], the “BBB Permeability (column Literature Report of BBB Permeability)” value is “Low”. The “Increase of cell survival rate” value in data set [2] (50 µM compound 1 after exposure to 50 µM glutamate, MTT, maximum protective effect) is 37%. Also, the “Neuroprotective effect at higher dose” value in data set [2] (100 μM compound 1) is recorded as “decreases”. In addition, the “Increase of BBB permeability after MCAO” value in data set [3] (24 h after MCAO vs intact animals) is given as approximately 10 fold. In addition, the “Concentration in the brain” value in data set [3] (intact animals) was found to be 0.3 μg g^–1. Also, the Cplasma/Ccortex was 630 and 630.9 ± 98.6 in data set [3] (intact animals); 37.9 ± 6.0 in data set [3] (rats 24 h after MCAO). Moreover, the Cplasma/Cstriatum in data set [3] (intact animals) is 650 and 651.2 ± 52.0; in data set [3] (rats 24 h after MCAO) it was 89.7 ± 9.4. The concentration at 60 min worked out at 300 ng/g in data set [3] (brain, intravenous, intact animals, read-out: Concentration in the brain); 2600 ng/g in data set [3] (brain, intravenous, rats with hemispheric stroke (24 h after MCAO), read-out: Concentration in the brain); 255000 ± 78200 ng/g in data set [3] (cortex, iv, intact animals, 60 min after intravenous administration, read-out: Ccortex); 13800 ± 3600 ng/mL in data set [3] (plasma, intravenous, rats 24 h after MCAO, read-out: Cplasma); 16100 ± 5800 ng/mL in data set [3] (plasma, iv, intact animals, 60 min after intravenous administration, read-out: Cplasma); 247000 ± 42600 ng/g in data set [3] (striatum, iv, intact animals, 60 min after intravenous administration, read-out: Cstriatum).
For `NC(=O)CN1CCCC1=O` [Piracetam, reference compound], in data set [4] (animals with ischemic stroke, ref 25 (Paliwal et al. 2018)), the “Increase of BBB permeability in animals with ischemic stroke” value was 3.5 fold. The “Literature Report of BBB Permeability” value in data set [4] is “Very good [21, 22]”. The “Patients who improved their memory and cognitive functions” value in data set [5] was “around 25%”.
